Data on 2 molecules can be found in patent US20190358286A1, “METHODS FOR THE PREVENTION OR TREATMENT OF LEFT VENTRICLE REMODELING” (Stealth BioTherapeutics Corp., priority 2013, published 2019).

In data set [1] the test system is several mammalian cell types. The conditions noted are these: energy-independent manner; cited from earlier work.
In data set [2] the test system is rats with permanent coronary artery occlusion. As to the kind of experiment: Deaths during 6 weeks treatment. The format is in vivo, rat. Conditions: 74 rats randomized to peptide or water. Here is the method: Rats were anesthetized, ventilated, and a thoracotomy performed in the left 4th intercostal space. Temperature was maintained at 36° C. by placing the rats on a heating pad during the procedure. The pericardium was excised and the proximal left coronary artery isolated and permanently occluded with a suture. Coronary artery occlusion was confirmed by cyanosis and akinesis of the anterior wall of the ventricle. The chest was closed, air evacuated, and the rats allowed to recover. Analgesia was administered per the veterinarian. An echocardiogram was obtained at approximately 15 minutes post coronary artery occlusion. At 2 hours rats were randomized to receive chronic daily D-Arg-2′,6′-Dmt-Lys-Phe-NH2 (delivered subcutaneously by an Alzet Osmotic Pump—3 mg/kg/day) or water. […] Heart rate and blood pressure were measured. A Millar catheter was inserted into the left ventricle and LV systolic pressure, LV end diastolic pressure, +dP/dt, and −dP/dt were measured. […] Postmortem left ventricle volume was measured by filling the LV cavity with fluid and measuring the total fluid. […] Quantitative histologic analysis included: total circumference, scar circumference, non-infarcted wall circumference, total LV area, total LV cavity area, LV wall thickness (at several points), non-infarcted wall thickness; myocardial infarct expansion index. […]

Non-standard residues stand in square brackets, D forms with d. Residues, ends and D or L forms follow the SMILES beside them. Dmt = Cc1cc(O)cc(C)c1C[C@H](N)C(=O)O

Take 2′,6′-Dmt-D-Arg-Phe-Lys-NH2: in data set [1], the “penetration of the plasma membrane” value is “readily penetrates”. Turning to `Cc1cc(O)cc(C)c1C[C@H](NC(=O)[C@H](N)CCCNC(=N)N)C(=O)N[C@@H](CCCCN)C(=O)N[C@@H](Cc1ccccc1)C(N)=O` [D-Arg-2′,6′-Dmt-Lys-Phe-NH2] (H-[dR][Dmt]KF-NH2), the “deaths during the 6 weeks treatment” value in data set [2] is recorded as “no rats died”.
